# Where a name gives a salt, the structure may show the parent alone.
# Assays:
# [1] = Stress stability at 50° C., purity profile; assay type: physicochemical
# Method: In order to evaluate the stability of the formulations described above, prototype A, B, C, D were maintained under the 50° C. stress condition for 30 days.
# [2] = target: T1, 5-HT1A receptor (Homo sapiens, UniProt P08908); assay: Equilibrium receptor binding, recombinant human receptor
# T1 construct: expressed in transfected cells
# T1 sequence (P08908 1-422): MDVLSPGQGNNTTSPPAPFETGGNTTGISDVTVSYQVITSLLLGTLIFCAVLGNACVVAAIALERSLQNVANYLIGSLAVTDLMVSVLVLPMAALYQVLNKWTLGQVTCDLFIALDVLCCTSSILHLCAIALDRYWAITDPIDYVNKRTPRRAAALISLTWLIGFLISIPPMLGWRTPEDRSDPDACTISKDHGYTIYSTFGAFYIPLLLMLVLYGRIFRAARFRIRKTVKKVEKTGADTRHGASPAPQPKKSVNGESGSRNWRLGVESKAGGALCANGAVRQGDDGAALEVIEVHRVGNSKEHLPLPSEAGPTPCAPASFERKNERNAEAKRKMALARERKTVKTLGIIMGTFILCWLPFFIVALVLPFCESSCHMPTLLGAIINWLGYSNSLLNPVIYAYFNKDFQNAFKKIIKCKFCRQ
# [3] = target: muscarinic M2 receptor (Homo sapiens, UniProt P08172); assay: as above; set-up: expressed in transfected cells
# Chain of muscarinic M2 receptor (P08172 whole entry): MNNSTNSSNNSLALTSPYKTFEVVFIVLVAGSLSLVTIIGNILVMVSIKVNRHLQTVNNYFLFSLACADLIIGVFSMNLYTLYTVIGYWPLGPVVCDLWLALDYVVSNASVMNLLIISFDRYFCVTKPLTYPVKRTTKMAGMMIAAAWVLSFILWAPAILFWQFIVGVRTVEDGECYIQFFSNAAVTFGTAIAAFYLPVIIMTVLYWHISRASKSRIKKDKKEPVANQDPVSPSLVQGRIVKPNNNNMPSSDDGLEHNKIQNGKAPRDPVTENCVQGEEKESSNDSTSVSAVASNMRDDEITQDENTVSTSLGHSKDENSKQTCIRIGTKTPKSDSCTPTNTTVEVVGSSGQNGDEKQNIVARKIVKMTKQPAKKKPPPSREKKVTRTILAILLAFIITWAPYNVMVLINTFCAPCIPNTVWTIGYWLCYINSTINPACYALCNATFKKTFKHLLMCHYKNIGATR
# [4] = target: T2, adrenergic alpha-2A receptor (Alpha2A) (Homo sapiens, UniProt P08913); assay: as above
# T2 construct: expressed in transfected cells
# T2 sequence (P08913 1-465): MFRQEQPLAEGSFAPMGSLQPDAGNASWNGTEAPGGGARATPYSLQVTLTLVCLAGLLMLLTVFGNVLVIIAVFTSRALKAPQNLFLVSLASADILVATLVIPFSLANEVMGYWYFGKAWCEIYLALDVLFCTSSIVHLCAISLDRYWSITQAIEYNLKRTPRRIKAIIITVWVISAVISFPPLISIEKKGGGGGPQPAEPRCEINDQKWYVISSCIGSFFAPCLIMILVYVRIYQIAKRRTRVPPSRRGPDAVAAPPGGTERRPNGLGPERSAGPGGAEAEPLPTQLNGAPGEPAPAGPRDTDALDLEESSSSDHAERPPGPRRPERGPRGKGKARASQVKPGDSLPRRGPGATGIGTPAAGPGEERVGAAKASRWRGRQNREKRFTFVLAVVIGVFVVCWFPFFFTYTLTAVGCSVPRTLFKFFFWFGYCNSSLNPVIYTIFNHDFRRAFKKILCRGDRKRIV
# [5] = target: T3, adrenergic alpha-2C receptor (Alpha2C) (Homo sapiens, UniProt P18825); assay: as above
# T3 construct: expressed in transfected cells
# T3 sequence (P18825 1-462): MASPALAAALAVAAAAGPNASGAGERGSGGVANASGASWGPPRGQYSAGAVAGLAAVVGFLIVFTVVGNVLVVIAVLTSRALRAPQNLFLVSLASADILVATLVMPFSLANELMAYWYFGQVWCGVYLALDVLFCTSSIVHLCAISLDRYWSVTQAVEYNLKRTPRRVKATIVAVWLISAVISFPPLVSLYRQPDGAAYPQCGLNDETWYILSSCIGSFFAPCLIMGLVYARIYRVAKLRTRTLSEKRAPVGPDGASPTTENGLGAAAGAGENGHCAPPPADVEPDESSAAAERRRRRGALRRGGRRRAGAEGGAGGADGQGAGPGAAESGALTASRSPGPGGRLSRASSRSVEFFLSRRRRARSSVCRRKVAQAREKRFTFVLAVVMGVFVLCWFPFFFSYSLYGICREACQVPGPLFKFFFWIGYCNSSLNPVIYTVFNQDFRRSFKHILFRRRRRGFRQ
# [6] = target: T4, 5-HT2C receptor (Homo sapiens, UniProt P28335); assay: as above
# T4 construct: expressed in transfected cells
# T4 sequence (P28335 33-458): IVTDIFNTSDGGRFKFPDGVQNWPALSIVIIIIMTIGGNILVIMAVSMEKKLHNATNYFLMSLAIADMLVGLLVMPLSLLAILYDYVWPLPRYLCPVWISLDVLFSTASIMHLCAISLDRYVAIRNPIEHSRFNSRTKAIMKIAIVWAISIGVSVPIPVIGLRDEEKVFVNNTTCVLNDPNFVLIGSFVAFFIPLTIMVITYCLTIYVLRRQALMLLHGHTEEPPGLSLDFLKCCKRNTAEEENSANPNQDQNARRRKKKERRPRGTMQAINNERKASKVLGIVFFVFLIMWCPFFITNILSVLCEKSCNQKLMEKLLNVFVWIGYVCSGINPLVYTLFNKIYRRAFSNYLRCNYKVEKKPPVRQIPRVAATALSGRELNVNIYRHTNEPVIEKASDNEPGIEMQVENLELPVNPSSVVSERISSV
# [7] = T0, samples stored at room temperature
# [8] = T15days, active ingredient without excipients
Ki [3],Compound,"Impurity 1 (Dibenzosuberenone, RT = about 56′) [1, 7]","Impurity 2 (Carbinole, RT = about 6′) [1, 7]","Impurity 4 (Amitriptyline, RT = about 15′) [1, 7]","Total Impurities [1, 7]","Unknown 1 (RT = about 16′) [1, 7]","Unknown 2 (RT = about 17.5′) [1, 7]","Unknown 3 (RT = about 7.5′) [1, 7]","Impurity 1 (Dibenzosuberenone, RT = about 56′) [1, 8]","Impurity 2 (Carbinole, RT = about 6′) [1, 8]","Impurity 4 (Amitriptyline, RT = about 15′) [1, 8]","Total Impurities [1, 8]","Unknown 1 (RT = about 16′) [1, 8]","Unknown 2 (RT = about 17.5′) [1, 8]","Unknown 3 (RT = about 7.5′) [1, 8]",Ki [2],Ki [4],Ki [5],Ki [6]
,CN(C)CCC=C1c2ccccc2C=Cc2ccccc21 [Cyclobenzaprine HCl (Dipharma)],Absent,Absent,Absent,0.005%,0.005%,Absent,0.028%,Absent,Absent,Absent,0.003%,Absent,0.003%,0.008%,,,,
140 nM,CNCCC=C1c2ccccc2CCc2ccccc21 [nortriptyline],,,,,,,,,,,,,,,100 nM,,,
,CN(C)CCC=C1c2ccccc2C=Cc2ccccc21 [Cyclobenzaprine HCl (Sifavitor)],Absent,Absent,Absent,0.020%,0.020%,Absent,Absent,Absent,Absent,Absent,0.019%,Absent,0.019%,Absent,,,,
,"CN(C)CCC=C1c2ccccc2CCc2ccccc21 [amitriptyline, 3-(10,11-dihydro-5H-dibenzo [a,d]cycloheptene-5-ylidene)-N,N-dimethyl-1-propanamine]",,,,,,,,,,,,,,,220 nM,250 nM,14 nM,28 nM
